Laboratory results: US20070042995A1, “Use of acetyl-d-aminoglycosamine in treatment of local lesions and systematic symptoms related to infections of virus or bacteria” (Third Military Medical University , Chinese People …, priority 2003, published 2007)

Columns and labels:
[1] = test system: Pseudomonas aeruginosa, serotype 8; assay: Animal test of controlling local lesions and systemic symptoms caused by infection of microorganism; assay type: in vivo, rabbits; details: 10% aqueous solution i.v., 2 ml, 3 times per day, 3 days; for rabbits survived: of 10 rabbits
Procedure: 10 rabbits were used in tests. The rabbits were administered with a culture of Gram-negative bacteria (Pseudomonas aeruginosa, serotype 8, wherein the bacterial number in the culture is about 3×10^11) in a dose of 10 ml per day for consecutive 3 days. […] The rabbits were intravenously administered with N-acetyl-D-glucosamine (10% aqueous solution) a dose of 2 ml every time, 3 times per day, for consecutive 3 days. […] In the test group, all 10 rabbits survived, while in the control group, 8/10 rabbits of the control group died within one week, and only 2 rabbits survived.
When N-acetyl-D-glucosamine was replaced with N-acetyl-D-glucosamine hydrochloride in the tests (other conditions were not changed), 7/10 rabbits of test group survived.

[2] = in vivo
Description: The toxicological test of the compound of formula (I) includes: • 1. Acute toxicity test: including tests of oral administration, intravenous injection administration, and maximum limit amount for administration; • 2. Ames test; • 3. Micronucleus test of mouse bone marrow cell; • 4. Abnormality test of mouse sperm; • 5. Aberration test of mouse testis chromosome; • 6. Chronic lethal test; • 7. Sub-chronic toxicity (feed for 90 days) test; • 8. Traditional deformity-inducing test.

B16 tumor cells [3] = assay: Cytological test of regulating micro-heterology variation; assay type: cell-based; details: final concentration 1 g/100 ml, incomplete 1640 media, cultured more than 48 hours
Procedure: Conventional incomplete 1640 culture media were used for cell culture, and B16 tumor cells (commercially obtained from the tumor cell library of Shanghai Institute of Cytobiology) were inoculated on said media. After being continuously cultured for more than 48 hours, the micro-heterology variation of cells and the control effects of N-acetyl-D-glucosamine thereon were observed under a condition where metabolic wastes affected the growth environment. […] The control cells cultured without N-acetyl-D-glucosamine could not proliferate on the same culture media under same conditions.

Proteus Mirabilis = assay: Promoting wave test (bio-wave model); assay type: cell-based; details: final concentration 0.5%, 37° C., 9 hours
Description: 1. Experimental Materials and Method: 1.1 Sample: Pure Compound of Formula (I) 1.2 Experimental Materials: • Strain: Proteus Mirabilis that meets the following biochemical reaction characteristics; dynamics (+), urease (+), lactose (−), glucose (+), H2S (−), phenylalanine deaminase (+). • Culture medium; modified LB culture medium (components: 1% tryptones, 0.5% yeast extract, 1% sodium chloride, 0.1% glucose, 0.002% TTC, and pH=7.2 to 7.4). 1.3 Experimental Method: • Control sample: the Proteus Mirabilis were inoculated at the center of LB plate, incubating at 37° C. for 9 hours; • Test sample: the compound of formula (I) with a final concentration of 0.5% was added to the LB plate, then the Proteus Mirabilis were inoculated by the same method, and cultured at 37° C. for 9 hours. 2. […] This wave-promoting function may explain the effects of using N-acetyl-D-glucosamine or pharmaceutically acceptable salts thereof for treating and controlling local lesions and systematic symptoms caused by infections of virus or bacteria.

B16 tumor cells [4] = assay: Animal test of regulating micro-heterology variation (B16 tumor cells inoculated in rats); assay type: in vivo; details: of 50 rats; 5% aqueous solution i.p., 1 ml, 3 times per day, 7 days
Description: In control group without the administration of the compound of formula (1), many proliferative corpuscles appeared in at least 40 among 50 rats within 1-3 days after the tumor cells were inoculated; many immature cells appeared within 3-5 days; and visible solid tumors finally appeared within about 10 days.

| SMILES | rabbits survived [1] | inflammation of nasal mucosa and respiratory tract [1] | systemic toxic symptoms ([1]; after one week) | dosage at which acute toxicosis reaction had not appeared [2] | cell proliferation under metabolic waste conditions (B16 tumor cells [3]) | bio-wave pattern of colony growth on LB plate (Proteus Mirabilis) | number of rats in which solid tumor did not appear (B16 tumor cells [4]) |
| --- | --- | --- | --- | --- | --- | --- | --- |
| CC(=O)N[C@H]1C(O)O[C@H](CO)[C@@H](O)[C@@H]1O.Cl (stereo partly drawn) [N-acetyl-D-glucosamine hydrochloride] | 7/10 | – | – | – | – | – | – |
| CC(=O)N[C@@H]1[C@@H](O)[C@H](O)[C@@H](CO)O[C@H]1O [N-acetyl-D-glucosamine] | 10 rabbits | inflammations were alleviated | symptoms were alleviated | more than 2 g/kg | the cell number stably increased with the culture time | not only concentric rings with an interval of 3 hours, but also many fine waves on each ring | 45 rats |
